The results in this text go back to ChEMBL document CHEMBL5506027, “Discovery of a Novel and Potent Cyclin-Dependent Kinase 8/19 (CDK8/19) Inhibitor for the Treatment of Cancer” (J Med Chem, 2024).

For one assay, the target named is CDK8/Cyclin C (Homo sapiens, UniProt P49336). Description: Displacement of tracer 236 from CDK8/cyclin C (unknown origin) preincubated for 15 mins followed by tracer addition and measured after 60 mins by FRET based lanthascreen assay. The assay is classed as protein-complex assay. For orientation: TR-FRET usually uses a lanthanide donor and a delayed reading to cut background.
Chain of CDK8/Cyclin C (P49336 whole entry): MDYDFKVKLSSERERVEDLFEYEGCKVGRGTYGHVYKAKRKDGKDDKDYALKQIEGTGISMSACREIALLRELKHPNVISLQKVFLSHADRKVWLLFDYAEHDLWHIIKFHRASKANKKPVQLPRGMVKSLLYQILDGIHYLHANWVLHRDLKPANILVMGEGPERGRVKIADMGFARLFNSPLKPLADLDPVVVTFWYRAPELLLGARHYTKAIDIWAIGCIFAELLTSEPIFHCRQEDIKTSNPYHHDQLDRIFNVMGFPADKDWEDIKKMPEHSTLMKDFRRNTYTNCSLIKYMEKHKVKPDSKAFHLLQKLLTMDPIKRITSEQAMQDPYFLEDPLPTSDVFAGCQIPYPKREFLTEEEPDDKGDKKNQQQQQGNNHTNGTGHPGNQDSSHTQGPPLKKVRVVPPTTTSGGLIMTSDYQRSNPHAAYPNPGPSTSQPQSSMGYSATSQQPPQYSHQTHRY
Chain of CDK8/Cyclin C (P24863 whole entry, further chain): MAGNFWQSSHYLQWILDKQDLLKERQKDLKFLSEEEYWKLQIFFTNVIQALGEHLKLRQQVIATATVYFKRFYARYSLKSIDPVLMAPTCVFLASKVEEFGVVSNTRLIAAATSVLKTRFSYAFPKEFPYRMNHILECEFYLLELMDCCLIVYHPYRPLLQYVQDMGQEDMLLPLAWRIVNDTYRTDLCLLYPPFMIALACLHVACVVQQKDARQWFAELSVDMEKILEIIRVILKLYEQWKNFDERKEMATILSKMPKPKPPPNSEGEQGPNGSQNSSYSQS

In another assay the test system is MV4-11. Description: Antiproliferative activity against human MV4-11 cells incubated for 5 days by CellTiter-Glo luminescent cell viability assay. The format is functional, cell-based. The conditions noted are these: MV4-11, 120 h. (Cellular ATP, detected with luciferase, serves as a proxy for viable cell number.)

Where only a bound is given, the exact number is not on record here.

Regarding `C=Cc1c(Br)c(Br)cc2c1nc(N1CCNCC1)n2C1CCOCC1`, the figures for the IC50 at CDK8/Cyclin C and in the assay on MV4-11 were 33.6 nM and 360 nM, respectively.
In the same order, the values of `Cc1c(Br)c(Br)cc2c1nc(N1CCNCC1)n2C1CCCOC1` (stereo not given) are 16.7 nM and 478 nM.
In the same order, the values of `Cc1c(Br)c(Br)cc2c1nc(N1CCNCC1)n2C1CCCC1` are 36.3 nM and 421 nM.
Take `OCCN1CCN(c2nc3c(C(F)F)c(Br)c(Br)cc3n2C2CCOCC2)CC1`: the figures for the IC50 on CDK8/Cyclin C and in the assay on MV4-11 were 6.5 nM and 32.7 nM, respectively.
In the same order, the values of `C#Cc1c(Br)c(Br)cc2c1nc(N1CCNCC1)n2C1CCOCC1` are 10.8 nM and 72.5 nM.
In the same order, the values of `Brc1cc2c(nc(N3CCNCC3)n2C2CCOCC2)c(C2CC2)c1Br` are 48.6 nM and greater than 1000 nM.
With `Cc1c(Br)c(Br)cc2c1nc(N1CCNCC1)n2C1CC2(COC2)C1`, the IC50 (usually the concentration at which inhibition is half-maximal) at CDK8/Cyclin C was greater than 1000 nM; in the assay with MV4-11 it was 795 nM.
In the same order, the values of `Clc1c(Br)c(Br)cc2c1nc(N1CCNCC1)n2C1CCOCC1` are 91 nM and greater than 1000 nM.
The matching figures for `N[C@@H]1CCN(c2nc3c(C(F)F)c(Br)c(Br)cc3n2C2CCOCC2)C1`: 20 nM and 33.8 nM.
In the same order, the values of `Cc1c(Br)c(Br)c(C)c2c1nc(N1CCNCC1)n2C1CCCC1` are 139 nM and greater than 1000 nM.
Turning to `Cc1c(Br)c(Br)cc2c1nc(N1CCNCC1)n2[C@H]1CC[C@H](O)CC1`, the values for the IC50 at CDK8/Cyclin C and with MV4-11 were 11.2 nM and 146 nM, respectively.
The matching figures for `NC1CCN(c2nc3c(C(F)F)c(Br)c(Br)cc3n2C2CCOCC2)CC1`: 35 nM and 188 nM.
Consider `Cc1c(Br)c(Br)cc2c1nc(N1CCNCC1)n2C1CCOCC1`, for which the figures for the IC50 on CDK8/Cyclin C and with MV4-11 were 7.9 nM and 39.4 nM, respectively.
In the same order, the values of `CN1CCN(c2nc3c(C(F)F)c(Br)c(Br)cc3n2C2CCOCC2)CC1` are 6.4 nM and 152 nM.
The matching figures for `Brc1cc2nc(N3CCNCC3)n(C3CCOCC3)c2cc1Br`: 166 nM and 526 nM.
